The values that follow come from patent US10799530B1, “Composition and method for the prevention and treatment of obesity” (Vector Vitale IP LLC, priority 2019, dated 2020).

Several values for one entry are separate records, joined by “and”; a condition that tells them apart may be missing. Equal entries are not always repeated.

Type in all cases: in vivo
The test system of assay [1] is rats. Kind of assay: Glucose tolerance test. Particulars: fast overnight, one value per animal.
Description: A glucose tolerance test was performed to determine a potential effect of zinc isotope on the dynamics of glucose concentration in the blood flow. Experimental procedure: laboratory animals are given intragastric injections of either normal saline solution or zinc in saline solution (5 mg/kg) in a volume of 2 ml. After that, 60 minutes after the aforementioned injections, the basal level of glucose is measured and a glucose solution is injected in an amount of 3 g/kg in a volume of 2 ml using the same route of administration. The blood glucose levels are measured again 60 minutes after injecting the glucose solution.
Assay [2] relates to rats. The assay can be described thus: Serum insulin level after intraperitoneal administration. Particulars: intact rats; 3750 μg of zinc per 1 kg intraperitoneally every other day, 7 injections.
Description: Animals are placed in cages, 4 per cage, with free access to food/water. […] Administration is performed every other day, in the amount of 7 injections per animal (intraperitoneal method of drug administration).
Samples in volume of 100 μl were incubated in microplate wells at 4° C. overnight. […] Non-specific binding sites were blocked with a 5% fat-free milk blocking solution and incubated for 1 hour at 37° C. After washing, the separate wells of the microplate were loaded with primary rabbit anti-insulin antibodies and incubated for 1 hour at 37° C. After incubation, the microplate wells were washed and loaded with appropriate secondary antibodies conjugated to horseradish peroxidase and incubated for another 1 hour at 37° C. […] The optical density was measured at 492 nm. The insulin concentrations were calculated using the calibration curve generated under the given conditions and human insulin of known concentration.)
In assay [3] the test system is rats. The assay can be described thus: Body weight, food and water consumption after intraperitoneal administration. Particulars: intact rats; 3750 μg of zinc per 1 kg intraperitoneally every other day, 7 injections. On the procedure:
The current dose was calculated by zinc.

Assay [4] concerns rats. Kind of assay: Area of islets of Langerhans after intraperitoneal administration. Particulars: intact rats, day 7 after the last administration.
Description: Animals are placed in cages, 4 per cage, with free access to food/water. […] Administration is performed every other day, in the amount of 7 injections per animal (intraperitoneal method of drug administration). The dose of the drug injected to each animal was calculated on the basis of the ratio: 3750 μg of zinc per 1 kg of animal body weight.

Regarding `CC(=O)[O-].CC(=O)[O-].[Zn+2]` [Zn acetate, Zinc acetate, reference compound], the “Glucose tolerance test, 60 min (1 h after glucose administration)” value with rats [1] (effector dose 5 mg/kg in 2 ml, glucose 3 g/kg body weight in 2 ml) is “also dropped, though not so strongly and 7.2 and 6.9 and 7.3 and 6.8”. Also, the “Glucose tolerance test, 0 min (1 h after effector administration)” value with rats [1] (effector dose 5 mg/kg in a volume of 2 ml) was 4.6 and 5.2 (2×) and 4.9 and 5.1. Further, in the assay on rats [2], the “Serum insulin levels at day 7 after the withdrawal” value is on record as “drop in the insulin levels to the value of those of intact/control animals” and the “Serum insulin levels on the first day after the drug withdrawal” value is given as “significant increase”.
As for zinc asparaginate [^64Zne], the “Body weight of rats” value in the assay with rats [3] is reported as “significant increase in the body weight”. In the assay on rats [2], the “Serum insulin levels at day 7 after the withdrawal” value was “significant increase in the insulin levels” and the “Serum insulin levels on the first day after the drug withdrawal” value is reported as “slightly higher than in the group of intact animals”. In addition, the “Area of islets of Langerhans compared to the control group and the zinc acetate group” value in the assay on rats [4] is “significant increase in the islet area”.
